Source: patent US7700584B2 (Hangzhou Minsheng Pharmaceuticals Co., Ltd., priority 2004, dated 2010)
Converted amounts (≈) assume the structure as drawn. Read-outs that look alike come from different tables or passages of the source.

Tests used:
[1] = system: SMMC-7721 human hepatic carcinoma; assay: In vitro inhibition rate to tumor cells (MTT), SMMC-7721; type: cell-based; details: for inhibition rate, Results (%) SMMC-7721: 50 μg/ml; for inhibition at 50 µg/mL: Homo sapiens, SMMC-7721, 50 μg/ml, read-out: inhibition rate, Results (%) SMMC-7721
[2] = system: U-937 human histocytic lymphoma; assay: In vitro anti-tumor IC50 (MTT), U-937; type: cell-based; details: Table 4
Method: (§1) (1) Single cell suspension was seeded into 96-well plates (the cells was diluted in the PRMI-1640 minimum medium to 3×10^4 cells/ml, […] diluted cells/well). […] The experiments were performed in quadruplicate.
(§2) (2) The medium was removed. Solutions of the anti-tumor agents (50 compounds) were prepared in a freshly prepared medium at serial concentrations. […] of the solution was added into each well. Incubation was continued for 48 hours.
(§3) (3) 20 ug of 2 mg/ml MTT was added into each well, and incubated for 4 hours.
(§4) (4) The medium was removed from the well. The microplates were swiftly turned down to throw-off the medium. […] of DMSO was added into each well, and vortexed at room temperature for 10 minutes.
(§5) (5) OD value (λ=570 nm) was measured with an Enzyme-Linked Detector.
(§6) (6) The graph of cell vitality was plotted, and IC50 was calculated.

[3] = system: Hepatitis B virus (HBV); type: cell-based; details: 200 μg/ml; for (Value of the positive control - Measured Value) Value of the positive control × 100%: decrease of HBeAg relative to positive control; for OD450 of HBeAg: supernatant four days after infection, positive control 1.917, negative 0.057
[4] = system: MCF-7 human mammary adenocarcinoma; assay: In vitro inhibition rate to tumor cells (MTT), MCF-7; type: cell-based; details: for inhibition rate, Results (%) MCF-7: 50 μg/ml; for inhibition at 50 µg/mL: Homo sapiens, MCF7, 50 μg/ml, read-out: inhibition rate, Results (%) MCF-7
[5] = system: U-937 human histocytic lymphoma; assay: In vitro inhibition rate to tumor cells (MTT), U-937; type: cell-based; details: for inhibition rate, Results (%) U-937: 50 μg/ml; for inhibition at 50 µg/mL: Homo sapiens, U-937, 50 μg/ml, read-out: inhibition rate, Results (%) U-937
[6] = system: 293 cells; assay: Cell status of 293 cells treated with sample alone (herpes virus screening)
[7] = system: MDCK (dog kidney) cells; assay: Toxicity TC50 of the samples in MDCK cells (influenza screening); details: concentration of 50% toxicity
[8] = system: HepG2 cells; assay: Cell status of HepG2 cells treated with sample (HBV screening); type: cell-based; details: 200 μg/ml, HepG2, four days after infection
Method: 1.5 Screening for the agents: The HepG2 cells were counted and 1.5×10^4 cells/well were seeded into a 96-well plate. After incubation overnight in an atmosphere of CO2 at 37° C., each of the experimental samples in a given concentration was added to the cells. After incubation at 37 °C for 24 hrs, the HepG2 treated with the samples were infected with vAcGFPHBVc of 100 MOI. A negative control and a positive control were also included. Four days after infection, the growth of the cells were observed, and the HBV e antigen in the supernatant was measured with the HBV e antigen diagnostic kit.

[9] = system: Hela human cervical carcinoma; assay: In vitro anti-tumor IC50 (MTT), Hela; type: cell-based; details: Table 4
Method: as §1, §2, §3, §4, §5, §6

[10] = system: Bel-7402 human hepatic carcinoma; assay: In vitro inhibition rate to tumor cells (MTT), Bel-7402; type: cell-based; details: for inhibition rate, Results (%) Bel-7402: 50 μg/ml; for inhibition at 50 µg/mL: Homo sapiens, Bel-7402, 50 μg/ml, read-out: inhibition rate, Results (%) Bel-7402
[11] = system: HL-60 human promyelocytic leukemia; assay: In vitro inhibition rate to tumor cells (MTT), HL-60; type: cell-based; details: for inhibition rate, Results (%) HL-60: 50 μg/ml; for inhibition at 50 µg/mL: Homo sapiens, HL-60, 50 μg/ml, read-out: inhibition rate, Results (%) HL-60
[12] = system: LLC mouse Lewis lung carcinoma; assay: In vitro inhibition rate to tumor cells (MTT), LLC; type: cell-based; details: 50 μg/ml; for inhibition at 50 µg/mL: Mus musculus, Lewis lung carcinoma
[13] = system: A-549 human lung adenocarcinoma; assay: In vitro inhibition rate to tumor cells (MTT), A-549; type: cell-based; details: for inhibition rate, Results (%) A-549: 50 μg/ml; for inhibition at 50 µg/mL: Homo sapiens, A549, 50 μg/ml, read-out: inhibition rate, Results (%) A-549
[14] = type: cell-based, VSV; details: 200 μg/ml, 24 hrs after infection
[15] = system: Hela human cervical carcinoma; assay: In vitro inhibition rate to tumor cells (MTT), Hela; type: cell-based; details: 50 μg/ml; for inhibition at 50 µg/mL: Homo sapiens, HeLa, read-out: inhibition rate, Results (%) Hela
[16] = system: mouse sarcoma 37; details: 75 mg/Kg, subcutaneous injection; cited from earlier work
[17] = system: Ehrlich's ascites carcinoma (EAC); details: 75 mg/Kg, subcutaneous injection; cited from earlier work
[18] = background statement; cited from earlier work
[19] = system: uterine cervix cancer; details: 75 mg/Kg, subcutaneous injection; cited from earlier work
[20] = 50 μg/ml, 293 cells without virus, 12 hrs

Structure (SMILES): CCCCNC=C1CC2(O)OC3(CC2C(C)C)C(C)CCC13.Cl (centres unmarked) [Compound 14, Curcumol n-butyl amine hydrochloride]
- inhibition rate, Results (%) SMMC-7721 ([1]; Table 1): 6.14%
- inhibition rate, Results (%) SMMC-7721 ([1]; Table 2 (repeated screening)): 3.21%
- IC50 (ug/ml) against tumor cell lines, U-937 [2]: 0.58 µg/mL
- (Value of the positive control - Measured Value) Value of the positive control × 100% [3]: 97.24%
- OD450 of HBeAg [3]: 0.053
- inhibition rate, Results (%) MCF-7 ([4]; Table 1): 56.30%
- inhibition rate, Results (%) MCF-7 ([4]; Table 2 (repeated screening)): 54.23%
- inhibition rate, Results (%) U-937 ([5]; Table 1): 82.88%
- inhibition rate, Results (%) U-937 ([5]; Table 2 (repeated screening)): 81.23%
- Cytopathy and cell status, Sample [6, 20]: Good
- Cytopathy and cell status, Sample ([6]; 200 μg/ml, 24 hrs): Poor
- TC50 [7]: 143.17 µg/mL
- Cell status [8]: Poor
- IC50 (ug/ml) against tumor cell lines, Hela [9]: 1.5 µg/mL
- inhibition rate, Results (%) Bel-7402 ([10]; Table 1): 32.00%
- inhibition rate, Results (%) Bel-7402 ([10]; Table 2 (repeated screening)): 23.56%
- inhibition rate, Results (%) HL-60 ([11]; Table 1): 2.45%
- inhibition rate, Results (%) HL-60 ([11]; Table 2 (repeated screening)): 4.35%
- inhibition rate, Results (%) LLC ([12]; Table 1): −10.57%
- inhibition rate, Results (%) LLC ([12]; Table 2 (repeated screening)): −14.29%
- inhibition rate, Results (%) A-549 ([13]; Table 1): 8.09%
- inhibition rate, Results (%) A-549 ([13]; Table 2 (repeated screening)): 9.23%
- Cytopathy and cell status, Sample + VSV [14]: Cytopathy, poor
- inhibition rate, Results (%) Hela ([15]; Table 1): 75.46%
- inhibition rate, Results (%) Hela ([15]; Table 2 (repeated screening)): 76.32%

Structure (SMILES): C=C1CC2(O)OC3(CC2C(C)C)C(C)CCC13 (centres unmarked) [Curcumol E, Curcumol, reference compound]
- inhibition at 50 µg/mL ([1]; Table 1): -11.5%
- inhibition at 50 µg/mL ([1]; Table 2 (repeated screening)): -12.3%
- inhibition at 50 µg/mL ([1]; Table 3 (repeated screening)): -0.23%
- (Value of the positive control - Measured Value) Value of the positive control × 100% [3]: −38.4455%
- OD450 of HBeAg [3]: 2.654
- inhibition rate against mouse sarcoma 37 (in words) [16]: high inhibition rate
- inhibition at 50 µg/mL ([4]; Table 1): 55.6%
- inhibition at 50 µg/mL ([4]; Table 2 (repeated screening)): 50.2%
- inhibition at 50 µg/mL ([4]; Table 3 (repeated screening)): 51.2%
- inhibition at 50 µg/mL ([5]; Table 1): 28%
- inhibition at 50 µg/mL ([5]; Table 2 (repeated screening)): 14.3%
- inhibition at 50 µg/mL ([5]; Table 3 (repeated screening)): 19.8%
- Cytopathy and cell status, Sample [6, 20]: Good
- TC50 [7]: >1000 µg/mL
- Cell status [8]: Normal
- IC50 ([9]; Homo sapiens, HeLa, read-out: IC50 (ug/ml) against tumor cell lines, Hela): 3.23 µg/mL (≈ 13.7 µM)
- inhibition at 50 µg/mL ([10]; Table 1): 4.79%
- inhibition at 50 µg/mL ([10]; Table 2 (repeated screening)): 9.87%
- inhibition at 50 µg/mL ([10]; Table 3 (repeated screening)): 9.78%
- inhibition rate against Ehrlich's ascites carcinoma (in words) [17]: high inhibition rate
- inhibition at 50 µg/mL ([11]; Table 1): 1.32%
- inhibition at 50 µg/mL ([11]; Table 2 (repeated screening)): 1.23%
- inhibition at 50 µg/mL ([11]; Table 3 (repeated screening)): 1.79%
- water solubility (in words) [18]: Poor water solubility
- inhibition at 50 µg/mL ([12]; Table 1): -3.04%
- inhibition at 50 µg/mL ([12]; Table 2 (repeated screening)): -8.9%
- inhibition at 50 µg/mL ([12]; Table 3 (repeated screening)): -14.4%
- inhibition at 50 µg/mL ([13]; Table 1): -0.57%
- inhibition at 50 µg/mL ([13]; Table 2 (repeated screening)): -11.3%
- inhibition at 50 µg/mL ([13]; Table 3 (repeated screening)): -16.6%
- inhibition rate against uterine cervix cancer (in words) [19]: high inhibition rate
- inhibition at 50 µg/mL ([15]; Table 1): 86.8%
- inhibition at 50 µg/mL ([15]; Table 2 (repeated screening)): 70.1%
- inhibition at 50 µg/mL ([15]; Table 3 (repeated screening)): 78.6%
